Data reported in ChEMBL document CHEMBL1201862, “PubChem BioAssay data set” (2004).
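Five concentrations, 48 hours, 96-well plates. GI50 is the concentration that inhibits growth by half.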 Active and inactive are the calls of the source. No stated cut-off is given here; in the data, active = GI50 up to about 1.1 µM and inactive = higher.

Tests used:
Assay in all cases: growth of human tumour cells (NCI), 48 h
OVCAR-3 = test system: OVCAR-3
NCI-H226 = test system: NCI-H226
A549 = test system: A549
HOP-92 = test system: HOP-92
SF-295 = test system: SF-295
HOP-62 = test system: HOP-62
SNB-78 = test system: SNB-78
SK-MEL-28 = test system: SK-MEL-28
XF498 = test system: XF498
KM-20L2 = test system: KM-20L2
RPMI-8226 = test system: RPMI-8226
K562 = test system: K562
HCT-15 = test system: HCT-15
OVCAR-5 = test system: OVCAR-5
SK-MEL-2 = test system: SK-MEL-2
SK-OV-3 = test system: SK-OV-3
CCRF-CEM = test system: CCRF-CEM
SK-MEL-5 = test system: SK-MEL-5
SF-268 = test system: SF-268
CAKI-1 = test system: CAKI-1
OVCAR-8 = test system: OVCAR-8
SNB-19 = test system: SNB-19
UACC-62 = test system: UACC-62
U-251 = test system: U-251
LOX IMVI = test system: LOX IMVI
KM12 = test system: KM12
M19-MEL = test system: M19-MEL
HCT-116 = test system: HCT-116
NCI-H460 = test system: NCI-H460
DLD-1 = test system: DLD-1
HOP-18 = test system: HOP-18
MOLT-4 = test system: MOLT-4
RXF 393 = test system: RXF 393
ACHN = test system: ACHN
786-0 = test system: 786-0
UACC-257 = test system: UACC-257
A498 = test system: A498
HL-60 = test system: HL-60
HT-29 = test system: HT-29
OVCAR-4 = test system: OVCAR-4
SR = test system: SR
COLO 205 = test system: COLO 205
NCI-H522 = test system: NCI-H522
Malme-3M = test system: Malme-3M
DMS-114 = test system: DMS-114
DMS-273 = test system: DMS-273
LXFL 529 = test system: LXFL 529
SNB-75 = test system: SNB-75
M14 = test system: M14
SW-620 = test system: SW-620
EKVX = test system: EKVX
RXF 631 = test system: RXF 631
TK-10 = test system: TK-10
SN12C = test system: SN12C
UO-31 = test system: UO-31
PC-3 = test system: PC-3
NCI/ADR-RES = test system: NCI/ADR-RES
SF-539 = test system: SF-539
NCI-H23 = test system: NCI-H23
HCC 2998 = test system: HCC 2998
MCF7 = test system: MCF7
DU-145 = test system: DU-145
BT-549 = test system: BT-549
IGROV-1 = test system: IGROV-1
Hs-578T = test system: Hs-578T
MDA-MB-231 = test system: MDA-MB-231
MDA-MB-435 = test system: MDA-MB-435
MDA-N = test system: MDA-N

SMILES: CC(=O)Oc1ccc(CO)cc1OC(C)=O
- GI50 (OVCAR-3): > 100 µM (inactive)
- GI50 (NCI-H226): > 100 µM (inactive)
- GI50 (A549): > 100 µM (inactive)
- GI50 (HOP-92): > 100 µM (inactive)
- GI50 (SF-295): > 100 µM (inactive)
- GI50 (HOP-62): > 100 µM (inactive)
- GI50 (SNB-78): > 100 µM (inactive)
- GI50 (SK-MEL-28): > 100 µM (inactive)
- GI50 (XF498): 92.9 µM (inactive)
- GI50 (KM-20L2): > 100 µM (inactive)
- GI50 (RPMI-8226): 51.6 µM (inactive)
- GI50 (K562): 57.8 µM (inactive)
- GI50 (HCT-15): > 100 µM
- GI50 (OVCAR-5): > 100 µM (inactive)
- GI50 (SK-MEL-2): > 100 µM (inactive)
- GI50 (SK-OV-3): > 100 µM (inactive)
- GI50 (CCRF-CEM): 27.6 µM (inactive)
- GI50 (SK-MEL-5): > 100 µM (inactive)
- GI50 (SF-268): > 100 µM (inactive)
- GI50 (CAKI-1): > 100 µM (inactive)
- GI50 (OVCAR-8): > 100 µM (inactive)
- GI50 (SNB-19): > 100 µM (inactive)
- GI50 (UACC-62): > 100 µM (inactive)
- GI50 (U-251): > 100 µM (inactive)
- GI50 (LOX IMVI): > 100 µM (inactive)
- GI50 (KM12): > 100 µM (inactive)
- GI50 (M19-MEL): > 100 µM (inactive)
- GI50 (HCT-116): > 100 µM (inactive)
- GI50 (NCI-H460): > 100 µM (inactive)
- GI50 (DLD-1): > 100 µM (inactive)
- GI50 (HOP-18): > 100 µM (inactive)
- GI50 (MOLT-4): > 100 µM (inactive)
- GI50 (RXF 393): > 100 µM (inactive)
- GI50 (ACHN): > 100 µM (inactive)
- GI50 (786-0): > 100 µM (inactive)
- GI50 (UACC-257): > 100 µM (inactive)
- GI50 (A498): > 100 µM (inactive)
- GI50 (HL-60): 24.5 µM (inactive)
- GI50 (HT-29): > 100 µM (inactive)
- GI50 (OVCAR-4): > 100 µM (inactive)
- GI50 (SR): > 100 µM (inactive)
- GI50 (COLO 205): > 100 µM (inactive)
- GI50 (NCI-H522): 36.3 µM (inactive)
- GI50 (Malme-3M): > 100 µM (inactive)
- GI50 (DMS-114): 40.3 µM (inactive)
- GI50 (DMS-273): > 100 µM (inactive)
- GI50 (LXFL 529): > 100 µM (inactive)
- GI50 (SNB-75): > 100 µM (inactive)
- GI50 (M14): > 100 µM (inactive)
- GI50 (SW-620): > 100 µM (inactive)
- GI50 (EKVX): 32.2 µM (inactive)
- GI50 (RXF 631): 63.2 µM (inactive)
- GI50 (TK-10): > 100 µM (inactive)
- GI50 (SN12C): > 100 µM (inactive)
- GI50 (UO-31): > 100 µM (inactive)

SMILES: COC(=O)c1sc(C(=O)OC)c2c1CSC2
- GI50 (PC-3): > 100 µM (inactive)
- GI50 (OVCAR-3): > 100 µM (inactive)
- GI50 (NCI-H226): > 70.6 µM (inactive)
- GI50 (NCI/ADR-RES): > 100 µM (inactive)
- GI50 (A549): > 100 µM (inactive)
- GI50 (HOP-92): 32 µM (inactive)
- GI50 (SF-539): 53.3 µM (inactive)
- GI50 (SF-295): 51.3 µM (inactive)
- GI50 (HOP-62): 47.6 µM (inactive)
- GI50 (SNB-78): 49.3 µM (inactive)
- GI50 (SK-MEL-28): > 100 µM (inactive)
- GI50 (XF498): 34.7 µM (inactive)
- GI50 (KM-20L2): > 100 µM (inactive)
- GI50 (RPMI-8226): > 100 µM (inactive)
- GI50 (K562): > 100 µM (inactive)
- GI50 (NCI-H23): > 72.1 µM (inactive)
- GI50 (HCT-15): > 91.2 µM
- GI50 (OVCAR-5): > 100 µM (inactive)
- GI50 (SK-MEL-2): 55.8 µM (inactive)
- GI50 (SK-OV-3): > 100 µM (inactive)
- GI50 (CCRF-CEM): > 100 µM (inactive)
- GI50 (SK-MEL-5): > 100 µM (inactive)
- GI50 (SF-268): 54.1 µM (inactive)
- GI50 (CAKI-1): > 93.5 µM (inactive)
- GI50 (OVCAR-8): 79.6 µM (inactive)
- GI50 (SNB-19): 51.8 µM (inactive)
- GI50 (UACC-62): > 78.7 µM (inactive)
- GI50 (U-251): 40.3 µM (inactive)
- GI50 (HCC 2998): > 100 µM (inactive)
- GI50 (LOX IMVI): > 94.6 µM (inactive)
- GI50 (KM12): > 100 µM (inactive)
- GI50 (M19-MEL): > 100 µM (inactive)
- GI50 (MCF7): > 100 µM (inactive)
- GI50 (HCT-116): 97.9 µM (inactive)
- GI50 (NCI-H460): > 100 µM (inactive)
- GI50 (DU-145): > 100 µM (inactive)
- GI50 (DLD-1): > 100 µM (inactive)
- GI50 (HOP-18): > 100 µM (inactive)
- GI50 (MOLT-4): > 100 µM (inactive)
- GI50 (RXF 393): 47.5 µM (inactive)
- GI50 (BT-549): > 100 µM (inactive)
- GI50 (ACHN): > 100 µM (inactive)
- GI50 (786-0): 53.6 µM (inactive)
- GI50 (UACC-257): > 100 µM (inactive)
- GI50 (IGROV-1): > 100 µM (inactive)
- GI50 (A498): > 91 µM (inactive)
- GI50 (HL-60): > 100 µM (inactive)
- GI50 (HT-29): > 100 µM (inactive)
- GI50 (OVCAR-4): > 100 µM (inactive)
- GI50 (SR): > 100 µM (inactive)
- GI50 (Hs-578T): 97.9 µM (inactive)
- GI50 (COLO 205): > 100 µM (inactive)
- GI50 (NCI-H522): 76.2 µM (inactive)
- GI50 (Malme-3M): > 100 µM (inactive)
- GI50 (DMS-114): > 85.5 µM (inactive)
- GI50 (DMS-273): > 100 µM (inactive)
- GI50 (MDA-MB-231): > 100 µM (inactive)
- GI50 (MDA-MB-435): > 100 µM (inactive)
- GI50 (LXFL 529): > 100 µM (inactive)
- GI50 (SNB-75): 22.5 µM (inactive)
- GI50 (M14): > 100 µM (inactive)
- GI50 (SW-620): > 100 µM (inactive)
- GI50 (EKVX): > 100 µM (inactive)
- GI50 (MDA-N): > 100 µM (inactive)
- GI50 (RXF 631): > 100 µM (inactive)
- GI50 (TK-10): > 100 µM (inactive)
- GI50 (SN12C): > 100 µM (inactive)
- GI50 (UO-31): > 100 µM (inactive)
